Source: ChEMBL document CHEMBL3885881, “DrugMatrix”

Species: Rattus norvegicus
Assay: DrugMatrix - Regimen: Daily Repeat
Type: toxicity, organism-based, Sprague-Dawley
Set-up: regimen Daily Repeat, gender Male, age 6-8 weeks
Conditions: in vivo, po, route oral GAVAGE, […]; for ABSOLUTE BASOPHIL / ABSOLUTE EOSINOPHIL / ABSOLUTE LYMPHOCYTE / ABSOLUTE MONOCYTE / ABSOLUTE SEGMENTED NEUTROPHIL / BASOPHIL / EOSINOPHIL / ERYTHROCYTE COUNT / HEMATOCRIT / HEMOGLOBIN / LEUKOCYTE COUNT / LYMPHOCYTE / MEAN CORPUSCULAR HEMOGLOBIN / MEAN CORPUSCULAR HEMOGLOBIN CONCENTRATION / MEAN CORPUSCULAR VOLUME / MONOCYTE / NEUTROPHIL / NUCLEATED RED BLOOD CELLS / PLATELET COUNT: tissue Blood; for ALANINE AMINOTRANSFERASE / ALBUMIN / ALKALINE PHOSPHATASE / ASPARTATE AMINOTRANSFERASE / BLOOD UREA NITROGEN / CARBON DIOXIDE / CHLORIDE / CHOLESTEROL / CREATINE PHOSPHOKINASE / CREATININE / GLUCOSE / LACTATE DEHYDROGENASE / LIPASE / PHOSPHORUS / POTASSIUM / SODIUM / TOTAL BILIRUBIN / TOTAL PROTEIN / URIC ACID: tissue Plasma
[1] = 24 mg/kg, 72 h, dose level Low, time 3 day
[2] = 24 mg/kg, 120 h, dose level Low, time 5 day
[3] = 770 mg/kg, 72 h, dose level High, time 3 day
[4] = 770 mg/kg, 120 h, dose level High, time 5 day

In the case of `COc1c(N2CCNC(C)C2)c(F)cc2c(=O)c(C(=O)O)cn(C3CC3)c12` (configuration not stated) [GATIFLOXACIN], the “ABSOLUTE BASOPHIL” value [1] is reported as 0 CELLS/uL, the “ABSOLUTE EOSINOPHIL” value [1] is reported as 38.67 CELLS/uL and the “ABSOLUTE LYMPHOCYTE” value [1] is reported as 12036 CELLS/uL. For the same molecule, the “ABSOLUTE MONOCYTE” value [1] was 222.67 CELLS/uL, the “ABSOLUTE SEGMENTED NEUTROPHIL” value [1] was 769.33 CELLS/uL and the BASOPHIL [1] was 0%. The EOSINOPHIL [1] was 0.33%, the “ERYTHROCYTE COUNT” value [1] was 5.26 x10E6/uL and the HEMATOCRIT [1] was 34.07%. For the same molecule, the HEMOGLOBIN [1] was 13.73 G/DL, the “LEUKOCYTE COUNT” value [1] was 13.07 x10E3/uL and the LYMPHOCYTE [1] was 92%. For the same molecule, the “MEAN CORPUSCULAR HEMOGLOBIN” value [1] was 26.17 pg, the “MEAN CORPUSCULAR HEMOGLOBIN CONCENTRATION” value [1] was 40.3 G/DL and the “MEAN CORPUSCULAR VOLUME” value [1] was 64.87 fL. For the same molecule, the MONOCYTE [1] was 1.67%, the NEUTROPHIL [1] was 6% and the “NUCLEATED RED BLOOD CELLS” value [1] was 0 /100WBC. The “PLATELET COUNT” value [1] was 1216.33 x10E3/uL, the “ALANINE AMINOTRANSFERASE” value [1] was 96.67 u/L and the ALBUMIN [1] was 4.1 G/DL. The “ALKALINE PHOSPHATASE” value [1] was 435.33 u/L, the “ASPARTATE AMINOTRANSFERASE” value [1] was 106.67 u/L and the “BLOOD UREA NITROGEN” value [1] was 15 mg/dL. The “CARBON DIOXIDE” value [1] was 24.67 mmol/L, the CHLORIDE [1] was 100.67 MEQ/L and the CHOLESTEROL [1] was 75 mg/dL. The “CREATINE PHOSPHOKINASE” value [1] was 818.33 u/L, the CREATININE [1] was 0.2 mg/dL and the GLUCOSE [1] was 183 mg/dL. The “LACTATE DEHYDROGENASE” value [1] was 221.67 u/L, the LIPASE [1] was 10.33 u/L and the PHOSPHORUS [1] was 13.13 mg/dL. For the same molecule, the POTASSIUM [1] was 6.33 MEQ/L, the SODIUM [1] was 143.27 MEQ/L and the “TOTAL BILIRUBIN” value [1] was 0.17 mg/dL. For the same molecule, the “TOTAL PROTEIN” value [1] was 5.77 G/DL, the “URIC ACID” value [1] was 1.7 mg/dL and the “ABSOLUTE BASOPHIL” value [2] was 0 CELLS/uL. The “ABSOLUTE EOSINOPHIL” value [2] was 0 CELLS/uL, the “ABSOLUTE LYMPHOCYTE” value [2] was 16055.67 CELLS/uL and the “ABSOLUTE MONOCYTE” value [2] was 361 CELLS/uL. For the same molecule, the “ABSOLUTE SEGMENTED NEUTROPHIL” value [2] was 1450 CELLS/uL, the BASOPHIL [2] was 0% and the EOSINOPHIL [2] was 0%. For the same molecule, the “ERYTHROCYTE COUNT” value [2] was 5.93 x10E6/uL, the HEMATOCRIT [2] was 37% and the HEMOGLOBIN [2] was 14.63 G/DL. The “LEUKOCYTE COUNT” value [2] was 17.87 x10E3/uL, the LYMPHOCYTE [2] was 90% and the “MEAN CORPUSCULAR HEMOGLOBIN” value [2] was 24.73 pg. For the same molecule, the “MEAN CORPUSCULAR HEMOGLOBIN CONCENTRATION” value [2] was 39.57 G/DL, the “MEAN CORPUSCULAR VOLUME” value [2] was 62.47 fL and the MONOCYTE [2] was 2%. The NEUTROPHIL [2] was 8%, the “NUCLEATED RED BLOOD CELLS” value [2] was 0 /100WBC and the “PLATELET COUNT” value [2] was 1096 x10E3/uL. The “ALANINE AMINOTRANSFERASE” value [2] was 69 u/L, the ALBUMIN [2] was 4.2 G/DL and the “ALKALINE PHOSPHATASE” value [2] was 431.33 u/L. For the same molecule, the “ASPARTATE AMINOTRANSFERASE” value [2] was 90.67 u/L, the “BLOOD UREA NITROGEN” value [2] was 13 mg/dL and the “CARBON DIOXIDE” value [2] was 27.67 mmol/L. For the same molecule, the CHLORIDE [2] was 100.67 MEQ/L, the CHOLESTEROL [2] was 70.67 mg/dL and the “CREATINE PHOSPHOKINASE” value [2] was 342 u/L. For the same molecule, the CREATININE [2] was 0.2 mg/dL, the GLUCOSE [2] was 149.33 mg/dL and the “LACTATE DEHYDROGENASE” value [2] was 413 u/L. For the same molecule, the LIPASE [2] was 10.33 u/L, the PHOSPHORUS [2] was 11.8 mg/dL and the POTASSIUM [2] was 5.99 MEQ/L. The SODIUM [2] was 145.2 MEQ/L, the “TOTAL BILIRUBIN” value [2] was 0.2 mg/dL and the “TOTAL PROTEIN” value [2] was 5.97 G/DL. The “URIC ACID” value [2] was 1.43 mg/dL, the “ABSOLUTE BASOPHIL” value [3] was 0 CELLS/uL and the “ABSOLUTE EOSINOPHIL” value [3] was 0 CELLS/uL. The “ABSOLUTE LYMPHOCYTE” value [3] was 12067.33 CELLS/uL, the “ABSOLUTE MONOCYTE” value [3] was 215.33 CELLS/uL and the “ABSOLUTE SEGMENTED NEUTROPHIL” value [3] was 450.67 CELLS/uL. For the same molecule, the BASOPHIL [3] was 0%, the EOSINOPHIL [3] was 0% and the “ERYTHROCYTE COUNT” value [3] was 6.18 x10E6/uL. The HEMATOCRIT [3] was 38.03%, the HEMOGLOBIN [3] was 15.1 G/DL and the “LEUKOCYTE COUNT” value [3] was 12.73 x10E3/uL. The LYMPHOCYTE [3] was 94.67%, the “MEAN CORPUSCULAR HEMOGLOBIN” value [3] was 24.5 pg and the “MEAN CORPUSCULAR HEMOGLOBIN CONCENTRATION” value [3] was 39.83 G/DL. The “MEAN CORPUSCULAR VOLUME” value [3] was 61.5 fL, the MONOCYTE [3] was 1.67% and the NEUTROPHIL [3] was 3.67%. The “NUCLEATED RED BLOOD CELLS” value [3] was 0 /100WBC, the “PLATELET COUNT” value [3] was 1233.67 x10E3/uL and the “ALANINE AMINOTRANSFERASE” value [3] was 57 u/L. For the same molecule, the ALBUMIN [3] was 4.07 G/DL, the “ALKALINE PHOSPHATASE” value [3] was 327 u/L and the “ASPARTATE AMINOTRANSFERASE” value [3] was 64.33 u/L. For the same molecule, the “BLOOD UREA NITROGEN” value [3] was 11 mg/dL, the “CARBON DIOXIDE” value [3] was 24.33 mmol/L and the CHLORIDE [3] was 103.67 MEQ/L. For the same molecule, the CHOLESTEROL [3] was 37 mg/dL, the “CREATINE PHOSPHOKINASE” value [3] was 603.67 u/L and the CREATININE [3] was 0.29 mg/dL. The GLUCOSE [3] was 368.33 mg/dL, the “LACTATE DEHYDROGENASE” value [3] was 191.67 u/L and the LIPASE [3] was 8.67 u/L. For the same molecule, the PHOSPHORUS [3] was 12.53 mg/dL, the POTASSIUM [3] was 6.44 MEQ/L and the SODIUM [3] was 143.43 MEQ/L. For the same molecule, the “TOTAL BILIRUBIN” value [3] was 0.13 mg/dL, the “TOTAL PROTEIN” value [3] was 5.6 G/DL and the “URIC ACID” value [3] was 2.13 mg/dL. The “ABSOLUTE BASOPHIL” value [4] was 0 CELLS/uL, the “ABSOLUTE EOSINOPHIL” value [4] was 57.33 CELLS/uL and the “ABSOLUTE LYMPHOCYTE” value [4] was 15898 CELLS/uL. For the same molecule, the “ABSOLUTE MONOCYTE” value [4] was 55 CELLS/uL, the “ABSOLUTE SEGMENTED NEUTROPHIL” value [4] was 1089.67 CELLS/uL and the BASOPHIL [4] was 0%. The EOSINOPHIL [4] was 0.33%, the “ERYTHROCYTE COUNT” value [4] was 6.68 x10E6/uL and the HEMATOCRIT [4] was 41.6%. The HEMOGLOBIN [4] was 16.5 G/DL, the “LEUKOCYTE COUNT” value [4] was 17.1 x10E3/uL and the LYMPHOCYTE [4] was 93%. For the same molecule, the “MEAN CORPUSCULAR HEMOGLOBIN” value [4] was 24.7 pg, the “MEAN CORPUSCULAR HEMOGLOBIN CONCENTRATION” value [4] was 39.67 G/DL and the “MEAN CORPUSCULAR VOLUME” value [4] was 62.27 fL. The MONOCYTE [4] was 0.33%, the NEUTROPHIL [4] was 6.33% and the “NUCLEATED RED BLOOD CELLS” value [4] was 0 /100WBC. For the same molecule, the “PLATELET COUNT” value [4] was 1161 x10E3/uL, the “ALANINE AMINOTRANSFERASE” value [4] was 71 u/L and the ALBUMIN [4] was 4 G/DL. The “ALKALINE PHOSPHATASE” value [4] was 300.33 u/L, the “ASPARTATE AMINOTRANSFERASE” value [4] was 74.33 u/L and the “BLOOD UREA NITROGEN” value [4] was 12.33 mg/dL. For the same molecule, the “CARBON DIOXIDE” value [4] was 26.67 mmol/L, the CHLORIDE [4] was 99.67 MEQ/L and the CHOLESTEROL [4] was 30.67 mg/dL. For the same molecule, the “CREATINE PHOSPHOKINASE” value [4] was 501.33 u/L, the CREATININE [4] was 0.29 mg/dL and the GLUCOSE [4] was 338.33 mg/dL. For the same molecule, the “LACTATE DEHYDROGENASE” value [4] was 199 u/L, the LIPASE [4] was 8.67 u/L and the PHOSPHORUS [4] was 11.53 mg/dL. The POTASSIUM [4] was 6.37 MEQ/L, the SODIUM [4] was 141.3 MEQ/L and the “TOTAL BILIRUBIN” value [4] was 0.2 mg/dL. For the same molecule, the “TOTAL PROTEIN” value [4] was 5.53 G/DL and the “URIC ACID” value [4] was 2.07 mg/dL.
